{
  "source": "BindingDB's records for doi:10.1016/j.bmcl.2003.10.070",
  "about": "(Roche Palo Alto, 2004)",
  "note": "pKi: −log10 of the molar value.",
  "data": [
    {"biological_target": "Prostacyclin receptor (Rattus norvegicus) (UniProt P43253)", "sequence (P43253 whole entry, looked up)": "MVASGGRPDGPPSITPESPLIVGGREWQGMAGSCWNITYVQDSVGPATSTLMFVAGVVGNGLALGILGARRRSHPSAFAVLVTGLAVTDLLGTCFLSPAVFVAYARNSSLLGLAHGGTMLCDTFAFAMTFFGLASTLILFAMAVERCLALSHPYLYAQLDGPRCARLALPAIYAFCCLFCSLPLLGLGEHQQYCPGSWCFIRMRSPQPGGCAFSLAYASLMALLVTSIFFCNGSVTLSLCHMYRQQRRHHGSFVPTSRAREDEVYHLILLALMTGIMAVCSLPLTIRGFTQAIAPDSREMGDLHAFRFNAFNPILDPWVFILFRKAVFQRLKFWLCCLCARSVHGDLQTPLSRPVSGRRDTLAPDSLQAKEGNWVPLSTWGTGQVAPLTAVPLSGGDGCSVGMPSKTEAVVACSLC", "assay": "Binding affinity towards prostacyclin receptor on rat NG-108-15 neuroblastoma cells, using [3H]iloprost as a radioligand", "values": [
      {"smiles": "COc1ccc(Sc2ccc(NC3=NC(C)CN3)cc2)cc1", "note": "(configuration not stated)", "pKi": 7.20},
      {"smiles": "COc1ccc(Oc2ccc(NC3=NCCN3)cc2)cc1", "pKi": 6.80},
      {"smiles": "COc1ccc(Sc2ccc(CC3=NCCN3)cc2)cc1", "pKi": 5.30},
      {"smiles": "Clc1ccc(Sc2ccc(CNC3=NCCN3)cc2)cc1", "pKi": 6.30},
      {"smiles": "COc1ccccc1Sc1ccc(NC2=NCCN2)cc1", "pKi": 5.40},
      {"smiles": "COc1ccc(Sc2ccc(NC3=NCCCN3)cc2)cc1", "pKi": 7.10},
      {"smiles": "Clc1cccc(Cl)c1Sc1ccc(NC2=NCCN2)cc1", "pKi": 6.20},
      {"smiles": "Clc1ccc(Sc2ccc(NC3=NCCN3)cc2)cc1", "pKi": 7.10},
      {"smiles": "CC/N=C(\\N)Nc1ccc(Sc2ccc(OC)cc2)cc1", "pKi": 6.60},
      {"smiles": "CCOc1ccc(Sc2ccc(NC3=NCCN3)cc2)cc1", "pKi": 7.40},
      {"smiles": "CS(=O)(=O)Nc1ccc(Sc2ccc(NC3=NCCN3)cc2)cc1", "pKi": 7.10},
      {"smiles": "COc1ccc(Sc2ccc(NC3=NC(C)(C)CN3)cc2)cc1", "pKi": 6.20},
      {"smiles": "CC(C)c1ccc(Sc2ccc(NC3=NCCN3)cc2)cc1", "pKi": 6.60},
      {"smiles": "COc1ccc(N(C)c2ccc(NC3=NCCN3)cc2)cc1", "pKi": 6.30},
      {"smiles": "COc1ccc(Sc2ccccc2NC2=NCCN2)cc1", "pKi": 6.20},
      {"smiles": "COc1ccc(Sc2ccc(C3=NCCN3)cc2)cc1", "pKi": 6.50},
      {"smiles": "COc1ccc(Sc2ccc(NC3=NCCCCN3)cc2)cc1", "pKi": 5.90},
      {"smiles": "O=[N+]([O-])c1ccc(Sc2ccc(NC3=NCCN3)cc2)cc1", "pKi": 6.50},
      {"smiles": "CC(C)Oc1ccc(Sc2ccc(NC3=NCCN3)cc2)cc1", "pKi": 7.49},
      {"smiles": "COc1ccc(Cc2ccc(NC3=NCCN3)cc2)cc1", "pKi": 7.60},
      {"smiles": "Cc1ccc(Sc2ccc(NC3=NCCN3)cc2)cc1", "pKi": 7.00},
      {"smiles": "CC(C)(C)c1ccc(Sc2ccc(NC3=NCCN3)cc2)cc1", "pKi": 6.40},
      {"smiles": "COc1ccc(S(=O)(=O)c2ccc(NC3=NCCN3)cc2)cc1", "pKi": 6.80},
      {"smiles": "COc1ccc(OC)c(Sc2ccc(NC3=NCCN3)cc2)c1", "pKi": 6.10},
      {"smiles": "FC(F)(F)c1ccc(Sc2ccc(NC3=NCCN3)cc2)cc1", "pKi": 7.30},
      {"smiles": "COc1ccc(C(=O)c2ccc(NC3=NCCN3)cc2)cc1", "pKi": 6.50},
      {"smiles": "c1ccc2c(c1)sc1ccc(NC3=NCCN3)cc12", "pKi": 5.50},
      {"smiles": "c1ccc(Sc2ccc(NC3=NCCN3)cc2)cc1", "pKi": 6.10},
      {"smiles": "COc1ccc(-c2ccc(NC3=NCCN3)cc2)cc1", "pKi": 6.00},
      {"smiles": "COc1ccc(Sc2ccc(CN3CCCC3)cc2)cc1", "pKi": 5.00},
      {"smiles": "CC/N=C(\\N)Nc1ccc(Sc2ccc(Cl)cc2)cc1", "pKi": 6.20},
      {"smiles": "CCOC(=O)c1ccc(Sc2ccc(NC3=NCCN3)cc2)cc1", "pKi": 7.30},
      {"smiles": "COc1cccc(Sc2ccc(NC3=NCCN3)cc2)c1", "pKi": 6.40},
      {"smiles": "COc1ccc(Sc2cccc(NC3=NCCN3)c2)cc1", "pKi": 5.40},
      {"smiles": "COc1ccc(Sc2ccc(C(=N)N)cc2)cc1", "pKi": 5.90},
      {"smiles": "c1cc(Sc2ccc3c(c2)OCCO3)ccc1NC1=NCCN1", "pKi": 6.20},
      {"smiles": "c1cc(SC2CCCCC2)ccc1NC1=NCCN1", "pKi": 5.50}
    ]}
  ]
}
